Test results taken from the supplement of paper PMC10307832.

Assays:
Assay in all cases: relative viability (nuclei count vs DMSO), 5 days (fraction); higher = more cells survive
201T = system: 201T
In short: (§1)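 Lung cancer cell lines, seeded in 1536-well plates, were treated the following day by pin tool with a single drug or with five library-drug doses (not always all listed) in √10 steps on top of a fixed anchor-drug dose. Cells were fixed and nuclei stained in one step after 5 days, and nuclei were counted. Relative viability is the nuclei count for treated wells divided by that for vehicle wells, reported as medians of duplicate plates.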

COR-L23 = system: COR-L23
In short: as §1

NCI-H1793 = system: NCI-H1793
In short: as §1

NCI-H2405 = system: NCI-H2405
In short: as §1

NCI-H2023 = system: NCI-H2023
In short: as §1

NCI-H1563 = system: NCI-H1563
In short: as §1

H3255 = system: H3255
In short: as §1

NCI-H1650 = system: NCI-H1650
In short: as §1

LOU-NH91 = system: LOU-NH91
In short: as §1

NCI-H1734 = system: NCI-H1734
In short: as §1

PC-14 = system: PC-14
In short: as §1

SW 900 = system: SW 900
In short: as §1

NCI-H2347 = system: NCI-H2347
In short: as §1

NCI-H520 = system: NCI-H520
In short: as §1

NCI-H2170 = system: NCI-H2170
In short: as §1

NCI-H3122 = system: NCI-H3122
In short: as §1

EPLC-272H = system: EPLC-272H
In short: as §1

NCI-H441 = system: NCI-H441
In short: as §1

NCI-H322M = system: NCI-H322M
In short: as §1

HCC-15 = system: HCC-15
In short: as §1

UMC-11 = system: UMC-11
In short: as §1

NCI-H647 = system: NCI-H647
In short: as §1

COc1nc(C)cnc1NS(=O)(=O)c1cccnc1-c1ccc(-c2nnco2)cc1 [Zibotentan] + COc1cccc2cc(-c3nc([C@H]4CC[C@H](C(=O)O)CC4)n4ncnc(N)c34)[nH]c12 [OSI-027] (partner 0.5 µM)
relative viability (201T; first compound 0.08 µM): 0.819 | relative viability (201T; first compound 0.253 µM): 0.699 | relative viability (201T; first compound 0.8 µM): 0.679 | relative viability (201T; first compound 2.53 µM): 0.755 | relative viability (COR-L23; first compound 0.08 µM): 0.713 | relative viability (COR-L23; first compound 0.253 µM): 0.651 | relative viability (COR-L23; first compound 0.8 µM): 0.789 | relative viability (COR-L23; first compound 2.53 µM): 0.798 | relative viability (NCI-H1793; first compound 0.08 µM): 0.351 | relative viability (NCI-H1793; first compound 0.253 µM): 0.284 | relative viability (NCI-H1793; first compound 0.8 µM): 0.224 | relative viability (NCI-H1793; first compound 2.53 µM): 0.254 | relative viability (NCI-H2405; first compound 0.08 µM): 0.694 | relative viability (NCI-H2405; first compound 0.253 µM): 0.657 | relative viability (NCI-H2405; first compound 0.8 µM): 0.663 | relative viability (NCI-H2405; first compound 2.53 µM): 0.627 | relative viability (NCI-H2023; first compound 0.08 µM): 0.475 | relative viability (NCI-H2023; first compound 0.253 µM): 0.228 | relative viability (NCI-H2023; first compound 0.8 µM): 0.371 | relative viability (NCI-H2023; first compound 2.53 µM): 0.476 | relative viability (NCI-H1563; first compound 0.08 µM): 0.767 | relative viability (NCI-H1563; first compound 0.8 µM): 0.761 | relative viability (NCI-H1563; first compound 2.53 µM): 0.77 | relative viability (H3255; first compound 0.08 µM): 0.536 | relative viability (H3255; first compound 0.253 µM): 0.542 | relative viability (H3255; first compound 0.8 µM): 0.576 | relative viability (H3255; first compound 2.53 µM): 0.526 | relative viability (NCI-H1650; first compound 0.08 µM): 0.579 | relative viability (NCI-H1650; first compound 0.8 µM): 0.644 | relative viability (NCI-H1650; first compound 2.53 µM): 0.716 | relative viability (LOU-NH91; first compound 0.08 µM): 0.673 | relative viability (LOU-NH91; first compound 0.253 µM): 0.681 | relative viability (LOU-NH91; first compound 0.8 µM): 0.732 | relative viability (LOU-NH91; first compound 2.53 µM): 0.784 | relative viability (NCI-H1734; first compound 0.08 µM): 0.655 | relative viability (NCI-H1734; first compound 0.253 µM): 0.558 | relative viability (NCI-H1734; first compound 0.8 µM): 0.604 | relative viability (NCI-H1734; first compound 2.53 µM): 0.668 | relative viability (PC-14; first compound 0.08 µM): 0.926 | relative viability (PC-14; first compound 0.253 µM): 0.651 | relative viability (PC-14; first compound 0.8 µM): 1.06 | relative viability (PC-14; first compound 2.53 µM): 0.929 | relative viability (SW 900; first compound 0.08 µM): 0.623 | relative viability (SW 900; first compound 0.253 µM): 0.607 | relative viability (SW 900; first compound 0.8 µM): 0.528 | relative viability (SW 900; first compound 2.53 µM): 0.496 | relative viability (NCI-H2347; first compound 0.253 µM): 0.384 | relative viability (NCI-H2347; first compound 0.8 µM): 0.49 | relative viability (NCI-H2347; first compound 2.53 µM): 0.259 | relative viability (NCI-H520; first compound 0.08 µM): 0.295 | relative viability (NCI-H520; first compound 0.253 µM): 0.24 | relative viability (NCI-H520; first compound 0.8 µM): 0.264 | relative viability (NCI-H520; first compound 2.53 µM): 0.31 | relative viability (NCI-H2170; first compound 0.08 µM): 0.702 | relative viability (NCI-H2170; first compound 0.253 µM): 0.761 | relative viability (NCI-H2170; first compound 0.8 µM): 0.64 | relative viability (NCI-H2170; first compound 2.53 µM): 0.791 | relative viability (NCI-H3122; first compound 0.08 µM): 1.01 | relative viability (NCI-H3122; first compound 0.8 µM): 0.915 | relative viability (NCI-H3122; first compound 2.53 µM): 0.957 | relative viability (EPLC-272H; first compound 0.08 µM): 0.328 | relative viability (EPLC-272H; first compound 0.253 µM): 0.287 | relative viability (EPLC-272H; first compound 0.8 µM): 0.269 | relative viability (EPLC-272H; first compound 2.53 µM): 0.301 | relative viability (NCI-H441; first compound 0.08 µM): 0.823 | relative viability (NCI-H441; first compound 0.253 µM): 0.404 | relative viability (NCI-H441; first compound 0.8 µM): 0.818 | relative viability (NCI-H441; first compound 2.53 µM): 0.752 | relative viability (NCI-H322M; first compound 0.08 µM): 0.578 | relative viability (NCI-H322M; first compound 0.253 µM): 0.508 | relative viability (NCI-H322M; first compound 0.8 µM): 0.657 | relative viability (NCI-H322M; first compound 2.53 µM): 0.6 | relative viability (HCC-15; first compound 0.08 µM): 0.644 | relative viability (HCC-15; first compound 0.8 µM): 0.759 | relative viability (HCC-15; first compound 2.53 µM): 0.781 | relative viability (UMC-11; first compound 0.08 µM): 0.562 | relative viability (UMC-11; first compound 0.253 µM): 0.462 | relative viability (UMC-11; first compound 0.8 µM): 0.467 | relative viability (UMC-11; first compound 2.53 µM): 0.514 | relative viability (NCI-H647; first compound 0.08 µM): 0.665 | relative viability (NCI-H647; first compound 0.253 µM): 0.584 | relative viability (NCI-H647; first compound 0.8 µM): 0.755 | relative viability (NCI-H647; first compound 2.53 µM): 0.725
